Assay results from patent US6720353B2, “Plant proanthocyanidin extract effective at inhibiting adherence of bacteria with p-type fimbriae to surfaces” (priority 1997, dated 2004).

Key:
[1] = tested on: type 1-fimbriated E coli; experiment: Yeast (Saccharomyces cerevisiae) agglutination assay; type: cell-based; conditions: for Inhibition of agglutination, Yeast Cells: type 1 E. coli, S. cerevisiae
Experimental: (§1) Sixty E. coli strains were isolated from the urine of human and animal (dog and cat) patients suffering from urinary tract infections. After determining the fimbrial type of each strain, 5 strains specific for P-type fimbriae, and 5 strains specific for type 1 fimbriae were selected for use in bioactivity testing. Bacterial strains were subcultured in tryptose broth at 37° C. for 16 h. P-type strains were transferred to colonization factor agar (CFA) plates and grown overnight at 37° C. to enhance production of P-type fimbriae. Strains were harvested by centrifugation, washed once and suspended in phosphate-buffered saline solution (PBS) at pH 7.0 at a concentration of 5×10^8 bacteria/mL. […] Therefore, mixtures of P-type strains were used to test for P-type bioactivity, and mixtures of type 1 strains were used to test for type 1 bioactivity. Strains were kept frozen at −70° C. in tryptose broth (30% glycerol) for long-term storage.
The fractions were also tested in the bioassay of Eschdat et al., 1978, Biochem. Biophys. Res. Commmun. 85:1551-1559, using yeast cells. Yeast cultures of Saccharomyces cerevisiae were grown in Sabouraud dextrose broth and incubated for 24 hr at 38° C. Yeast cells were transferred to Sabouraud dextrose agar plates and grown under the same conditions. Cells were harvested, washed and suspended in PBS at a concentration of 4×10^8 cells/mL. Ten μl of type 1-fimbriated E coli were mixed with neutralized test fractions (30 μl) in a 24-well polystyrene plate and incubated for 10 min on a rotary shaker. Yeast cell suspension (10 μl) was added to each well and incubated for 5 min. […] The control to show agglutination consisted of bacteria and yeast. Tie results are shown in Table 4 under the column “Yeast Cells” using the same scoring system as described above.

[2] = tested on: P-type E. coli; experiment: Latex bead agglutination test (beads coated with synthetic P-type receptor analog Galα1→4Galβ); type: cell-based; conditions: for Inhibition of agglutination, P-Receptor: P-type E. coli, latex beads coated with P-type receptor analog
Experimental: as §1
The fractions were also tested in the P-type receptor bioassay of de Man et al., 1987, J. Clin. Microbiol. 25(2):401-406. Dried Fractions 1-8 were dissolved in PBS, neutralized, and mixed with P-type bacterial suspensions (30 μl fraction to 10 μl of bacterial suspension) on a polystyrene 24-well plate and incubated for 10 min on a rotary shaker. Latex beads coated with a synthetic P-type receptor analog (Galα1→4Galβ) (BACH test, Kabi Vitrum, Stockholm, Sweden) suspended in water at a concentration of 5×10^9 beads/mL were added (10 μl) to each well and incubation continued for 20 min on the rotary shaker. […] (4) uncoated beads and test fractions, and (5) bacteria, coated beads and epicatechin trimer. The control to show agglutination consisted of bacteria and coated beads.

[3] = tested on: type 1 E. coli; experiment: Hemagglutination assay with guinea pig red blood cells (GPRBC); type: cell-based
Experimental: as §1
The inhibition of adherence of type 1 E. coli by the various fractions was tested according to hemagglutination assay for P-type bacteria, except guinea pig red blood cells (GPRBC) were used in place of HRBC. The results are shown in Table 4 under the column GPRBC using the same scoring system as described above.

[4] = tested on: P-type E. coli; experiment: Hemagglutination assay: inhibition of P-type E. coli-induced agglutination of A+ human red blood cells (HRBC); type: cell-based; conditions: for Inhibition of agglutination, HRBC: P-type E. coli, A+ human red blood cells, neutral pH
Experimental: as §1

[5] = tested on: type 1 E. coli; conditions: cited from earlier work

| Compound | Agglutination in control well ([1]; bacteria, yeast and 1% D-mannose) | Inhibition of agglutination, Yeast Cells [1] | Inhibition of agglutination, P-Receptor [2] | Inhibition of agglutination, GPRBC [3] | Inhibition of agglutination, HRBC [4] | Inhibition of type 1 E. coli to uroepithelial cells [5] | Agglutination in control well ([2]; bacteria, coated beads and standard) | Agglutination in control well ([4]; bacteria, HRBC and standard) |
| --- | --- | --- | --- | --- | --- | --- | --- | --- |
| O=C[C@@H](O)[C@@H](O)[C@H](O)[C@H](O)CO [1% D-Mannose, D-Mannose] | no agglutination or complete inhibition of agglutination | + | − | + | − |  |  |  |
| O=C(CO)[C@@H](O)[C@H](O)[C@H](O)CO [fructose] |  |  |  |  |  | responsible for the inhibition |  |  |
| Epicatechin Trimer |  | − | + | − | + |  | no agglutination or complete inhibition of agglutination | no agglutination or complete inhibition of agglutination |
